Experimental data taken from patent publication US10889611B2, “Sialyltransferase inhibitors and uses thereof” (Academia Sinica, priority 2015, dated 2021).
Marks after values point to notes of the source that are not given here.

Legend:
[1] = target: T1, α2,3(N)-sialyltransferase ST3GALIII (Rattus norvegicus, UniProt Q02734); experiment: Sialyltransferase activity assay, ST3GALIII; format: biochemical; details: calculated based on the concentration, of ST inhibitor used toward α2,3-O-ST3GALI, listed as 3 (FCW34)
T1 construct: purchased Calbiochem
T1 sequence (Q02734 1-374): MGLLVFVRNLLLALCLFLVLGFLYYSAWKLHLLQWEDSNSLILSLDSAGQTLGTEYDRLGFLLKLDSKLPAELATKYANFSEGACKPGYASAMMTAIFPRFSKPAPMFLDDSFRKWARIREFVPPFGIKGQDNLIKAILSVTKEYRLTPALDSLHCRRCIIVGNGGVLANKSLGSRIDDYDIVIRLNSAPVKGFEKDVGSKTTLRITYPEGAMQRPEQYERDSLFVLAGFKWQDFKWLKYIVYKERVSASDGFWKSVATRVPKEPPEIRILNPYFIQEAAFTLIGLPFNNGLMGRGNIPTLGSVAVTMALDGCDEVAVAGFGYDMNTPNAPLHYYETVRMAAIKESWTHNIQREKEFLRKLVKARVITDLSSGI
Method: The enzymes analyzed in the present study included rat ST3Gal(I), rat ST3Gal(III), and human ST6Gal(I). Rat ST3Gal(I) and rat ST3Gal(Ill), were purchased from Calbiochem®, while human ST6Gal(I) was purchased from RnDSystems.com.
(§1) Sialyltransferase inhibition assay […] was performed as follows: Sialyltransferase activity was determined by measuring the level of the end product of sialylated saccharides with reverse-phase HPLC. The assay mixtures contained the following components: 200 mM MES buffer; 100 mM NaCl; 0.5 mM EDTA; 0.01% Triton X-100; 1.4 mU ST3GALI; 2.5 mM T-antigen; 1 mM CMP-Neu5Ac and different concentration of Sialyltransferase inhibitors to a total volume of 50 μl. The assay mixture was incubated at 37° C. for 15 mins and then quenched by heating up to 101′C for 10 mins. The sialylated product was resolved by reversed-phase HPLC. Kinetic data were obtained by fitting the initial rate data to the nonlinear regression equation.
as §1, with “mU ST6GALI; 25 μM Galβ1-4GlcNAc;” for “mU ST3GALI; 2.5 mM T-antigen;”, “to 101° C.” for “to 101′C”, “product is” for “product was”, “resolved with” for “resolved by”
Effects of the present compounds on the activity of sialyltransferase, including α2,3(N)-sialyltransferase ST3GALIII, α2,6(N)-sialyltransferases ST6GALI, and α2,3(O)-sialyltransferase ST3GALI, were determined in accordance with procedures described in the “Materials and Methods” section, and results are summarized in Table 1.

[2] = target: T2, α2,6(N)-sialyltransferases ST6GALI (Homo sapiens, UniProt P15907); experiment: Sialyltransferase inhibition assay, ST6GALI (reverse-phase HPLC); format: biochemical
T2 construct: purchased RnDSystems.com (R&D Systems)
T2 sequence (P15907 1-406): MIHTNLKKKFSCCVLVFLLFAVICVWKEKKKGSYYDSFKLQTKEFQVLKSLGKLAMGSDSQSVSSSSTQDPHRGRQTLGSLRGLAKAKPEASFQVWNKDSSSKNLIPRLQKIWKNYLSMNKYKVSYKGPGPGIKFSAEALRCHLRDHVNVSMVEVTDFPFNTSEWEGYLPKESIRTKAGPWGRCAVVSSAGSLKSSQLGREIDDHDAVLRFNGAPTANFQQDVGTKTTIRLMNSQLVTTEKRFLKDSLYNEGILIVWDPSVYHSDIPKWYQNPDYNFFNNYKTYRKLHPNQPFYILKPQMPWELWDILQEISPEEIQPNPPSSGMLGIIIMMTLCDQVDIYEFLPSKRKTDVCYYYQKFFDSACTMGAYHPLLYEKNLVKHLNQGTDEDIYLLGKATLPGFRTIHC
Procedure, shortened: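 Human ST6GalI (1.4 mU) incubated 15 min at 37° C with 25 μM Galβ1-4GlcNAc, 1 mM CMP-Neu5Ac and inhibitor in 200 mM MES, 100 mM NaCl, 0.5 mM EDTA, 0.01% Triton X-100. Sialylated product quantified by reverse-phase HPLC; kinetics from nonlinear fitting of initial rates.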

[3] = target: T3, α2,3(O)-sialyltransferase ST3GALI (Rattus norvegicus, UniProt Q6H8N0); experiment: Sialyltransferase inhibition assay, ST3GALI (reverse-phase HPLC); format: biochemical; details: read-out: ST3GALI inhibition percentage
T3 construct: purchased Calbiochem
T3 sequence (Q6H8N0 1-340): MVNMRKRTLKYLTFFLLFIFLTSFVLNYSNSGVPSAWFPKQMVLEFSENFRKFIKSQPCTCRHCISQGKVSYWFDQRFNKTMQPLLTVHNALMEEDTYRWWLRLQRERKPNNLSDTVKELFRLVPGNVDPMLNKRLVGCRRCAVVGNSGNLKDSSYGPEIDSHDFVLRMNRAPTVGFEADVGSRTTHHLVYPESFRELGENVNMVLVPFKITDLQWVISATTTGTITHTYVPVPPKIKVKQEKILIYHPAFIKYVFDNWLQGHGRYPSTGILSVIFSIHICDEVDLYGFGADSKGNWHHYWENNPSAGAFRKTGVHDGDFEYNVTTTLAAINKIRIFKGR
Procedure, shortened: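 Rat ST3Gal(I) (1.4 mU) was incubated with 2.5 mM T-antigen and 1 mM CMP-Neu5Ac in 200 mM MES, 100 mM NaCl, 0.5 mM EDTA and 0.01% Triton X-100 with varied inhibitor, 15 min at 37 °C, then heat-quenched. Sialylated product was quantified by reverse-phase HPLC, and kinetic values came from nonlinear regression of initial rates.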

[4] = system: PANC-1 cells; experiment: SNA lectin staining of 2,6-sialylation by FACS in PANC-1 cells; format: cell-based, human; details: PANC-1 cells grown in fructose-containing medium, FIG. 3
From the text: PANC-1 cells were first grown in glucose-containing or fructose-containing medium treated with or without the presence of the test compound (i.e., FCW34 or AL10, which was used as a positive control), then the cells were stained with SNA lectin to measure 2,6-sialylation level by FACS analysis.

[5] = system: PANC-1 pancreatic tumor; experiment: Inhibition of pancreatic tumor growth in SCID mice; format: in vivo
Method: SCID mice (6 weeks old) were orthotopically injected with 1×10^5 human pancreatic cells PANC-1 grown in glucose-containing or fructose-containing medium with or without the presence of the present compound (e.g., FCW34, 5 μM) on day 0. The progression of the tumor was followed by bioluminescence IVIS image analysis, and the test animals were then sacrificed by cervical dislocation after 14 weeks, and respective tumors and the liver sections were collected, and analyzed by histochemical staining with SNA lectin to measure 2,6-sialylation levels utilizing FACS analysis.

[6] = target: T1, α2,3(N)-sialyltransferase ST3GALIII; experiment: Sialyltransferase activity assay, ST3GALIII; format: biochemical; details: α2,3-N-link; read-out: IC50 (μM) ST3GALIII

## C[C@H](CCC(=O)OCCOCCOCCN=[N+]=[N-])C1CC[C@H]2[C@@H]3CC[C@@H]4C[C@H](OC(=O)[C@H](CC(=O)O)Nc5ccc([N+](=O)[O-])c6nonc56)CC[C@]4(C)[C@H]3CC[C@]12C (stereo partly drawn) [Compound 3, (3S)-4-(((3R,5R,8R,9S,10S,13R,14S)-17-((R)-5-(2-(2-(2-azidoethoxy)ethoxy)ethoxy)-5-oxopentan-2-yl)-10,13-dimethylhexadecahydro-1H-cyclopenta[a]phenanthren-3-yl)oxy)-3-((7-nitrobenzo[c][1,2,5]oxadiazol-4-yl)amino)-4-oxobutanoic acid]
[1]; 500 μM
  selectivity ratio ST3GALI/ST3GALIII: >287^d
[1]; 1 mM
  selectivity ratio ST3GALI/ST3GALIII: (<575)^e
[2]
  selectivity ratio ST3GALI/ST6GALI: >139
[2]; α2,6-N-link, read-out: IC50 (μM) ST6GALI
  IC50: 3.59 ± 0.38 µM
[3]; measured at 500 μM
  inhibition at 500 µM: 0%
[3]; measured at 1 mM
  inhibition at 1000 µM: 60%
[4]
  level of 2,6-sialylation: greatly reduced
[5]; PANC-1 cells grown in fructose-containing medium
  metastatic lesions in livers (histological analysis): suppressed
[5]; PANC-1 cells pre-treated with FCW34, FIG. 5
  progression of the tumor: halted significantly
[5]; mice bearing pancreatic cancer
  Liver lesions Incidence: 0/3
[6]
  IC50: 1.74 ± 0.09 µM
